Measured values: patent US20160220710A1, “COMPOSITIONS AND METHODS FOR DELIVERING PHARMACEUTICAL AGENTS” (THE REGENTS OF THE UNIVERSITY OF MICHIGAN, priority 2015, published 2016)

Legend:
[1] = test system: carrageenan-based footpad-edema model; assay: Carrageenan footpad edema model, 8-week orally fed mice; format: in vivo; conditions: 8 week oral treatment
Description: Experiments using the CFZ mice model were performed as published before (Baik et al., 2013, supra; Baik et al., 2012, supra; Keswani, R. K. et al. Mol. Pharm. 12, 2528-2536 (2015)). Mice (4 week old, male C57Bl/6) were purchased from the Jackson Laboratory (Bar Harbor, Me.) and acclimatised for 2 weeks in a specific-pathogen-free animal facility. All animal care was provided by the University of Michigan's Unit for Laboratory Animal Medicine (ULAM), and the experimental protocol was approved by the Committee on Use and Care of Animals. CFZ was dissolved in sesame oil (Roland, China, or Shirakiku, Japan) to achieve a concentration of 3 mg/ml, which was mixed with Powdered Lab Diet 5001 (PMI International, Inc., St. Louis, Mo.) to produce a 0.03% drug to powdered feed mix. A corresponding amount of sesame oil was mixed with chow for vehicle treatment (control).
Mice Carrageenan Footpad Edema Model. Carrageenan (C1867, Sigma-Aldrich®, 2% in PBS, 30 μl) was injected into the right footpad while PBS (30 μl) was injected in the left footpad as a negative control. For preliminary testing of CFZ as an anti-inflammatory agent, 8-week orally fed mice (CFZ and control) were used. For testing of CFZ in soluble and microcrystal form, naïve 4-5 week old mice were injected with carrageenan first followed by injection of CFZ-A (2 mM in DMSO, 30 μl), CLDIs (2 mM equivalent in PBS, 30 μl) or CFZ-HCl (2 mM equivalent in PBS, 30 μl) at 48 h post carrageenan injection. For control experiments, CFZ-A, CLDIs and CFZ-HCl were injected into the right footpads of naïve 4-5 week old mice. DMSO was used as a control for CFZ-A in the left footpad whereas PBS was used as a control for CLDIs and CFZ-HCl. Footpads were measured (length—l, width—w, three thicknesses—t1, t2, t3) at various time points using a digital vernier calliper and changes in the swelling based on volume of the foot was calculated as per above.

[2] = test system: caspase 1, IL-1β, TNFα, IL-1RA; assay: Inflammasome proteins and cytokines in organs of CFZ-treated mice; format: in vivo
Description: Clofazimine (CFZ, Sigma-Aldrich, C8895) was prepared in sesame oil (Shirakiku, Japan, or Roland, China) and Powdered Lab Diet 5001 (PMI International, Inc., St. […] Baik et al., 2011, supra). Control mice were fed with the same diet without CFZ. The animal protocol was approved by the University of Michigan's Animal Care and Use Committee in accordance with the National Institutes of Health guidelines (UCUCA #PRO0005111). Mouse Bronchoalveolar Lavage (BAL) Harvest and Isolation of Alveolar Macrophages, Immunohistochemistry and Imaging, SDS-PAGE and Western Blot, Cytokine Measurements

RAW 264.7 cells = assay: Cell viability assay (XTT assay); format: cell-based, murine; conditions: 24 h
Description: Cells were plated in triplicate wells at a density of 5×10^3 per well in 96-well plates in DMEM with 5% FBS and allowed to adhere overnight. Soluble CFZ (Stock solution 5 mM in DMSO) or CLDIs were added (0.25, 0.5, 1, 2, 4, 10, 20, 40 and 80 μM final concentrations) to cells and incubated (37° C.) for 24 h. XTT assay (Roche, UK) was carried out according to the manufacturer's instructions with absorbance measured at 450 nm and 690 nm using a Synergy-2 plate reader (Biotek). The cell viability percentage was calculated by comparing absorbance of CFZ and CLDI-treated cells to control (untreated) cells.

[3] = Baseline vital signs of 8 wk CFZ-treated mice; format: in vivo
Description: Clofazimine (CFZ, Sigma-Aldrich, C8895) was prepared in sesame oil (Shirakiku, Japan, or Roland, China) and Powdered Lab Diet 5001 (PMI International, Inc., St. […] Baik et al., 2011, supra). Control mice were fed with the same diet without CFZ. The animal protocol was approved by the University of Michigan's Animal Care and Use Committee in accordance with the National Institutes of Health guidelines (UCUCA #PRO0005111). The general health status of each PBS/LPS-instilled mice was monitored by measuring body weight and rectal temperature (Microprobe Thermometer, Physitemp Instruments, Clifton, N.J.), and cardiopulmonary function (arterial oxygen saturation, respiratory rate, heart rate and pulse distention) was monitored using MouseOx with a collar clip sensor ([…] Sciences Corp, Oakmont, Pa.) as previously described (Lax S et al., (2014) BMJ open […], et al. (2014) PLoS One 9(6):e98336). In brief, one day before IT instillations (D-1) the hair around the neck of each mouse was removed using Nair (Church & Dwight, Princeton, N.J.) to enable data acquisition using the collar clip sensor. The next day (D 0), immediately prior to the first LPS/PBS dose, and every 24 h afterwards until day 6 (D 6), the body weight, temperature and MouseOx readings were recorded. MouseOx data was acquired by very brief anesthesia of the mouse using 5% isoflurane to facilitate the placement of the collar clip sensor. The mouse was then placed in an enclosed chamber with ambient light and allowed to acclimatize for 5 min at which point the animals had recovered normal activities and physiological readings.

[4] = 2 weeks of oral drug administration

CC(C)/N=c1\cc2n(-c3ccc(Cl)cc3)c3ccccc3nc-2cc1Nc1ccc(Cl)cc1 [CFZ, 3-(p-chloroanilino)-10-(p-chlorophenyl)-2, 10-dihydro-2-isopropyliminophenazine]
decrease of inflammation vs control diet ([1]; t=4 h): ~3 fold
decrease of inflammation vs control diet ([1]; t=24 h): ~14 fold
decrease of inflammation vs control diet ([1]; t=48 h): ~2 fold
TNFα expression in organs ([2]; 2 and 8 weeks, except liver at 2 weeks): unchanged by CFZ at both 2 and 8 weeks
cleavage of hepatic caspase 1 and IL-1β ([2]; 2 weeks of CFZ): only moderate cleavage of hepatic caspase 1 and IL-1β
IL-1RA in the liver [2, 4]: did not cause significant IL-1RA change in the liver
spleen and lung IL-1RA levels [2, 4]: slightly increased
IL-1RA levels in the kidney ([2]; 8 weeks): unchanged
hepatic caspase 1 cleavage and IL-1β maturation ([2]; 8 weeks of CFZ): significantly reduced
IL-1RA expression in liver, spleen and lung ([2]; 8 weeks of oral administration): major upregulation of IL-1RA expression
IL-1β levels in the spleen, lung and kidney ([2]; mouse, in vivo): did not change
cell viability (RAW 264.7 cells; 2 μM): 61%
cell viability (RAW 264.7 cells; 10 μM): 20%
arterial oxygen saturation, higher than control diet-treated [3]: 1.5%
behavioral signs of sickness [3]: did not display any behavioral signs of sickness
body temperature [3]: unaffected
breathing rate, lower than control diet-treated [3]: 10.7%
heart rate, lower than control diet-treated [3]: 9.3%
pulse distention, lower than control diet-treated [3]: 16.9%
weight, less than control diet-treated [3]: 6.7%
Arterial O2 Saturation (% ± S.D.) ([3]; n = 16): 99.01 ± 0.24%
Body Temperature (° C. ± S.D) ([3]; n = 16): 35.52 ± 0.76 °C
Breathing rate (brpm ± S.D.) ([3]; n = 16): 154.29 ± 19.43 brpm
Heart rate (bpm ± S.D.) ([3]; n = 16): 573.94 ± 85.28 bpm
Pulse distention (μm ± S.D) ([3]; n = 16): 425.57 ± 52.32 μm
Weight (g ± S.D) ([3]; n = 16): 24.39 ± 1.92 g
